Experimental data reported in US20250243190A1, “NEW DEUTERATED RORGAMMA/RORGAMMAT INVERSE AGONISTS” (IMMUNIC AG, priority 2022, published 2025).

How the values were obtained:
[1] = CC50 accompanying the influenza A assay; format: cell-based; conditions: influenza A test
Description: (§1) The assay for measuring influenza A has been described in general in Antimicrob. Agents Chemother. 2015; 59:2062 and applied to compounds of the present invention furnished the following representative results: […]

[2] = system: respiratory syncytial virus (RSV, A2 strain expressing eGFP, Long strain or RSV-B); assay: Antiviral activity on RSV in HEp-2 cells; format: cell-based; conditions: human respiratory syncytial virus, HEp-2, 45 h, read-out: IC50 (50% inhibitory concentration)
Experimental: One day before infection, 20,000 HEp-2 cells per well were seeded in a 96-well plate. Example 100 or DMSO vehicle controls were applied on cell monolayers at indicated concentrations and infected immediately after treatment with respiratory syncytial virus (RSV, A2 strain expressing eGFP, Long strain or RSV-B) at MOI 0.001. Cells were incubated for 45 h at 37° C. and 5% CO2. RSV infection was quantified either by counting green fluorescent infected cells using CTL-Immunospot reader or by ICC staining using RSV-targeting antibody. Shown as mean values of triplicate wells normalized to the corresponding vehicle-treated controls ±SD.

[3] = Mouse pharmacokinetics, oral or intravenous cassette dosing; format: in vivo, mice (C57BL/6J); conditions: C57BL/6J, whole blood, 3 female mice, 5 mg/kg oral cassette, sampling 0.5-24 h; for AUC(0-t): read-out: AUC0-24 h
Experimental: The pharmacokinetics of the compounds of the present invention was evaluated in 3 male and 3 female mice (C57BL/6J, 8 week old) after oral or intravenous cassette dosing to assess the oral bioavailability. Dose was 5 mg/kg (oral) and 1 mg/kg (intravenous), application volume was 5 mL/kg (oral) and 0.5 mL/kg (intravenous), vehicle was 5% solutol, 95% NaCl solution (at 0.9% saline concentration) for oral and 5% solutol, 5% Ethanol, 90% NaCl solution (at 0.9% saline concentration) for intravenous. At each designated time point (0.25, 0.5, 1, 2, 4, 8 and 24 h after dosing), 20 μL whole blood were collected from the tail vein into Li-heparin tubes, frozen on dry ice within 1-2 minutes of sampling and stored at −20° C. until processed for LC-MS analysis. The obtained data is as follows:
(§2) The pharmacokinetics of additional compounds of the present invention was evaluated in 3 female mice (C57BL/6J, 8 week old) after oral cassette dosing. Dose was 5 mg/kg, application volume was 5 mL/kg, vehicle was 5% solutol, 95% NaCl solution (at 0.9% saline concentration). At each designated time point (0.5, 1, 2, 4, 8 and 24 h after dosing), 20 μL whole blood were collected from the tail vein into Li-heparin tubes, frozen on dry ice within 1-2 minutes of sampling and stored at −20° C. until processed for LC-MS analysis. The obtained data is as follows:
as §2, with “(0.25, 0.5,” for “(0.5,”, “4 and” for “4,”, “8” for “8 and 24”, “analysis.” for “analysis. The obtained data is as follows:”

RORγt = molecular target: T1, RORγt (Homo sapiens, UniProt P51449); assay: Indigo Biosciences Human RAR-related Orphan Receptor, Gamma Reporter Assay (in vitro inhibition of RORγt); format: cell-based; conditions: RORγt reporter cells, luciferase readout, 22-24 h incubation; read-out: IC50 range
T1 sequence (P51449 269-508 limits assumed): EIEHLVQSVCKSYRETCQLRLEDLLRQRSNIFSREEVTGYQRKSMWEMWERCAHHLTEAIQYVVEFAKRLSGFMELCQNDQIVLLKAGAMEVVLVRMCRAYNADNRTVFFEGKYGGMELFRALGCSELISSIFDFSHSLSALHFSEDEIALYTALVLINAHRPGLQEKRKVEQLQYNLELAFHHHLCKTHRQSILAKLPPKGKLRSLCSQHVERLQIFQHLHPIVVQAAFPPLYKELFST
Experimental: The in vitro inhibition of RORγt was measured using Indigo Biosciences Human RAR-related Orphan Receptor, Gamma Reporter Assay System (Product #IB304001-32) as described in the technical manual. In brief, 200 μL of Reporter Cells is dispensed into wells of the assay plate and preincubated for 4-6 h. Following the pre-incubation period, culture media are discarded and 200 µL/well of the prepared 1×-concentration treatment media are added. Following 22-24 h incubation, treatment media are discarded and Luciferase Detection Reagent is added. The intensity of light emission (in units of ‘Relative Light Units’; RLU) from each assay well is quantified using a plate-reading luminometer. Average values of RLU were determined for each treatment concentration. Non-linear regression analyses were performed and IC50 values determined using GraphPad Prism software. Provided inverse-agonists ursolic acid served as positive control.

influenza A = assay: Antiviral activity on influenza A; format: cell-based; conditions: Influenza A virus; read-out: EC50 range
Description: as §1

SARS-CoV-2 = assay: Antiviral activity on SARS-CoV-2, viral replication (YFP) assay; format: cell-based; conditions: Severe acute respiratory syndrome coronavirus 2, read-out: EC50 range
Description: (§3) The assay for viral replication (YFP) and the cell viability assay has been described in general in Pathogens 2021; 10:1076 and applied to compounds of the present invention furnished the following results: […]

[4] = Microsomal stability, mouse liver microsomes; conditions: male, CD-1, mouse, mouse liver microsomes 10003 CD-1, male (Corning), 60 min, Example 100 experiment
Experimental: (§4) The conversion to the metabolite was monitored by HPLC-MS/MS. Verapamil served as positive control.
The metabolism was monitored by HPLC-MS/MS.
Verapamil served as positive control. The intrinsic clearance was calculated from the measured remaining compound values.

[5] = Cell viability assay accompanying the SARS-CoV-2 assay; format: cell-based; conditions: cell viability assay of the SARS-CoV-2 test
Description: as §3

[6] = Microsomal stability, rat liver microsomes; conditions: rat liver microsomes 9078001 (Corning), 60 min, Example 102 experiment
Experimental: as §4
(§5) The metabolism was monitored by HPLC-MS/MS. Verapamil served as positive control. The intrinsic clearance was calculated from the measured remaining compound values.

[7] = Microsomal stability, human liver microsomes; conditions: both
Experimental: as §4, §5, §5

SMILES	CC50 [1] [nM]	IC50 [2] [nM]	Cmax [3] [ng/mL]	half-life [3] [h]	AUC(0-t) [3] [ng·h/mL]	IC50 (RORγt) [nM]	EC50 (influenza A) [nM]	EC50 (SARS-CoV-2) [nM]	microsomal CLint [4] [µL/min/mg]	CC50 [5] [nM]	microsomal CLint [6] [µL/min/mg]	microsomal CLint [7] [µL/min/mg]
[2H]C([2H])([2H])OC(=O)c1c(-c2c(F)cccc2Cl)noc1-c1cnn(-c2cccc(Cl)c2)c1C(F)(F)F [Example 100, Methyl-d3 3-(2-chloro-6-fluorophenyl)-5-(1-(3-chlorophenyl)-5-(trifluoromethyl)-1H-pyrazol-4-yl)isoxazole-4-carboxylate]	82000	< 50	50.5	6.4	201	< 10	< 100	< 100	24.4	50000		
[2H]C([2H])(OC1CC1)c1c(-c2c(F)cccc2Cl)noc1-c1cnn(-c2cccc(Cl)c2)c1C(F)(F)F [Example 102, 3-(2-Chloro-6-fluorophenyl)-5-(1-(3-chlorophenyl)-5-(trifluoromethyl)-1H-pyrazol-4-yl)-4-(cyclopropoxymethyl-d2)isoxazole]	> 100000		272	7.2	970	10 to 100	100 to 1000	< 100		17000	29.4	6.7
